Experimental data reported in patent EP2926811A1, “ARTEMETHER-CONTAINING PHARMACEUTICAL COMPOSITION, PREPARATION, AND USE THEREOF” (Kunming Pharmaceutical Corp., priority 2012, dated 2014).
Read-outs that look alike come from different tables or passages of the source.

What was measured:
Format in all cases: cell-based
[1] = test system: K562 cells; assay: modified MTT method, proliferation of K562 cells; settings: Homo sapiens, read-out: IC50 on the growth of K562 cells
Description: (§1) Five test concentrations 2, 10, 50, 250 and 500 µM were set for each of five derivatives of artemisinin, artemether drug substance, artemisinin, dihydroartemisinin, artesunate were dissolved with dimethyl sulfoxide (DMSO), while the lyophilized powder of artemether was dissolved with normal saline (N.S.), followed by addition of a certain amount of RPMI 1640 complete culture solution to formulate a high-concentration solution, and each of the low-concentration solutions was formulated by proportionate dilution from the high-concentration solution.
(§2) The concentrations of DMSO contained in the solutions at the two relatively high concentrations 500 and 250 µM for the artemether drug substance, artemisinin, dihydroartemisinin, artesunate, used as solvent controls, were formulated with […] culture solution, at which time the test concentrations of DMSO were 1% and 0.5%. The concentrations of the excipients contained in the solutions at the two relatively high concentrations 500 and 250 µM for the preparation of lyophilized powder of artemether were used as solvent controls.
(§3) The positive control was an anti-cancer drug adriamycin (ADM), which was set at three test concentrations (final concentrations) of 0.1, 1 and 10 µg/ml. To ADM stock solution (1 mg/ml) a certain amount of PRMI 1640 complete culture solution was added, to formulate a high-concentration solution, and each of the low-concentration solutions were formulated by proportionate dilutions from the high-concentration solution.
(§4) HL-60: (human promyelocytic leukemia cell line); K562 (human chronic myelocytic leukemia cell line); HT-29 (human colon cancer cell line); PC-3 (human prostate cancer cell line); A549 (human non-small cell lung cancer cell line); MKN-28 (human gastric cancer cell line); Hep2 (human laryngeal cancer cell line), all of which were purchased from Cell Bank of Shanghai Institutes for Biological Sciences, the Chinese Academy of Sciences.
(§5) Influence of the five test samples on the proliferation of 7 human tumor cell lines was determined via a modified MTT method.
(§6) Cells in logarithmic growth phase were taken, adjusted to a certain concentration and then added into a 96 well culture plate. After culture of adherent cells for a period until adherence, the test samples were added; and for suspension cells, the test samples were added after inoculation. 5 test concentrations 2, 10, 50, 250 and 500 µM were set, with 3 parallel wells for each concentration, 10 µl/well; the solvent controls were 0.5% and 1% of isovolumetric DMSO, and the positive controls was ADM at 3 concentrations 0.1, 1 and 10 µg/ml. The samples were loaded followed by culture for a period of time in an incubator at 37°C, 5% CO2, followed by addition of MTT (5 mg/ml) at 20 µl/well, and continued to be cultured for a period of time and added with a three-combined solution [10% SDS - 5% isobutanol - 0.012 mol/L HCl (W/V/V)]. After dissolving in uniformity, it was continued to be placed in the incubator at 37°C, 5% CO2 for a period of time, and the OD value of each well was determined under a wavelength of 570 nm with a microplate reader, according to which the results were calculated.
(§7) The cellular proliferation inhibition rate was calculated in accordance with the following equation: Inhibition rate (%) = (OD valuecontrol well-OD valuesample well)/OD valuecontrol well × 100% [formula]
(§8) When the inhibition rate of DMSO on cells was more than 15%, calculation was carried out using the following equation: Inhibition rate (%) = (OD valuesolvent group-OD valueadministered well)/OD valuesolvent group × 100% [formula]
(§9) The inhibition rate was calculated by using Microsoft Excel 2003, and median inhibitory concentration IC50 was calculated with a LOGIT method, which was used as an indicator for judging the inhibitory capability.

[2] = test system: HL-60 cells; assay: modified MTT method, proliferation of HL-60 cells; settings: Homo sapiens, read-out: IC50 on the growth of HL-60 cells
Description: as §1, §2, §3, §4, §5, §6, §7, §8, §9

[3] = test system: A549 cells; assay: modified MTT method, proliferation of A549 cells; settings: Homo sapiens, read-out: IC50 on the growth of A549 cells
Description: as §1, §2, §3, §4, §5, §6, §7, §8, §9

[4] = test system: HT-29 cells; assay: modified MTT method, proliferation of HT-29 cells; settings: Homo sapiens
Description: as §1, §2, §3, §4, §5, §6, §7, §8, §9
(§10) According to the results of preliminary screening, further experiments were adjusted such that more sensitive cell lines were screened out. […]

[5] = test system: PC-3 cells; assay: modified MTT method, proliferation of PC-3 cells; settings: Homo sapiens, read-out: IC50 on the growth of PC-3 cells
Description: as §1, §2, §3, §4, §5, §6, §7, §8, §9

[6] = test system: MKN-28 cells; assay: modified MTT method, proliferation of MKN-28 cells; settings: Homo sapiens, MKN-28, 72 h, secondary screening
Description: as §1, §2, §3, §4, §5, §6, §7, §8, §9, §10

[7] = test system: Hep2 cells; assay: modified MTT method, proliferation of Hep2 cells; settings: Homo sapiens, HEp-2, 72 h, secondary screening
Description: as §1, §2, §3, §4, §5, §6, §7, §8, §9, §10

[8] = test system: 7 human tumor cell lines; assay: modified MTT method, summary over the panel of human tumor cell lines; settings: HL-60, K562, A549, HT-29, PC-3, MKN-28, Hep2
From the text: as §4, §5
Cells in logarithmic growth phase were taken, adjusted to a certain concentration and then added into a 96 well culture plate. After culture of adherent cells for a period until adherence, the test samples were added; and for suspension cells, the test samples were added after inoculation. […] After dissolving in uniformity, it was continued to be placed in the incubator at 37°C, 5% CO2 for a period of time, and the OD value of each well was determined under a wavelength of 570 nm with a microplate reader, according to which the results were calculated.
as §9

IC50 ([1]; K562, 24 h, Batch 1, 24 h): > 1000 µM
IC50 ([1]; K562, 24 h, Batch 2, 24 h): > 1000 µM
IC50 ([1]; K562, 24 h, Batch 3, 24 h): > 1000 µM
IC50 ([1]; K562, 48 h, Batch 1, 48 h): > 1000 µM
IC50 ([1]; K562, 48 h, Batch 2, 48 h): > 1000 µM
IC50 ([1]; K562, 48 h, Batch 3, 48 h): 991 µM
IC50 ([1]; K562, 72 h, Batch 1, 72 h): > 1000 µM
IC50 ([1]; K562, 72 h, Batch 2, 72 h): 518 µM
IC50 ([1]; K562, 72 h, Batch 3, 72 h): 449 µM
IC50 ([2]; HL-60, 24 h, Batch 1, 24 h): > 1000 µM
IC50 ([2]; HL-60, 24 h, Batch 2, 24 h): 750 µM
IC50 ([2]; HL-60, 48 h, Batch 1, 48 h): > 1000 µM
IC50 ([2]; HL-60, 48 h, Batch 2, 48 h): 331 µM
IC50 ([2]; HL-60, 72 h, Batch 1, 72 h): > 1000 µM
IC50 ([2]; HL-60, 72 h, Batch 2, 72 h): 577 µM
IC50 ([3]; A549, 24 h, Batch 1, 24 h): > 1000 µM
IC50 ([3]; A549, 24 h, Batch 2, 24 h): 421 µM
IC50 ([3]; A549, 48 h, Batch 1, 48 h): > 1000 µM
IC50 ([3]; A549, 48 h, Batch 2, 48 h): > 1000 µM
IC50 ([3]; A549, 72 h, Batch 1, 72 h): > 1000 µM
IC50 ([3]; A549, 72 h, Batch 2, 72 h): > 1000 µM
IC50 ([4]; HT-29, 24 h, preliminary screening, Batch 1, 24 h, read-out: IC50 on the growth of HT-29 cells): > 1000 µM
IC50 ([4]; HT-29, 24 h, preliminary screening, Batch 2, 24 h, read-out: IC50 on the growth of HT-29 cells): > 1000 µM
IC50 ([4]; HT-29, 48 h, preliminary screening, Batch 1, 48 h, read-out: IC50 on the growth of HT-29 cells): > 1000 µM
IC50 ([4]; HT-29, 48 h, preliminary screening, Batch 2, 48 h, read-out: IC50 on the growth of HT-29 cells): > 1000 µM
IC50 ([4]; HT-29, 72 h, preliminary screening, Batch 1, 72 h, read-out: IC50 on the growth of HT-29 cells): > 1000 µM
IC50 ([4]; HT-29, 72 h, preliminary screening, Batch 2, 72 h, read-out: IC50 on the growth of HT-29 cells): > 1000 µM
IC50 ([4]; HT-29, 72 h, secondary screening, 72 h, Batch 1, read-out: IC50 on the growth of HT-29 cells (72 h)): 2350 µM
IC50 ([4]; HT-29, 72 h, secondary screening, 72 h, Batch 2, read-out: IC50 on the growth of HT-29 cells (72 h)): 773 µM
IC50 ([4]; HT-29, 72 h, secondary screening, 72 h, Batch 3, read-out: IC50 on the growth of HT-29 cells (72 h)): 437 µM
IC50 ([4]; HT-29, 72 h, secondary screening, 72 h, average, read-out: IC50 on the growth of HT-29 cells (72 h)): 545 µM
IC50 ([5]; PC-3, 24 h, Batch 1, 24 h): > 1000 µM
IC50 ([5]; PC-3, 24 h, Batch 2, 24 h): > 1000 µM
IC50 ([5]; PC-3, 48 h, Batch 1, 48 h): > 1000 µM
IC50 ([5]; PC-3, 48 h, Batch 2, 48 h): > 1000 µM
IC50 ([5]; PC-3, 72 h, Batch 1, 72 h): > 1000 µM
IC50 ([5]; PC-3, 72 h, Batch 2, 72 h): > 1000 µM
IC50 ([6]; Average, read-out: IC50 on the growth of MKN-28 cells (72 h)): 970 µM
IC50 ([6]; Batch 1, read-out: IC50 on the growth of MKN-28 cells (72 h)): 588 µM
IC50 ([6]; Batch 2, read-out: IC50 on the growth of MKN-28 cells (72 h)): 1440 µM
IC50 ([6]; Batch 3, read-out: IC50 on the growth of MKN-28 cells (72 h)): 1610 µM
Compound: C[C@@H]1CC[C@H]2[C@@H](C)C(=O)O[C@@H]3O[C@@]4(C)CC[C@@H]1[C@]32OO4 [artemisinin]
IC50 ([7]; Batch 1, read-out: IC50 on the growth of Hep2 cells (72 h)): 350 µM
IC50 ([7]; Batch 2, read-out: IC50 on the growth of Hep2 cells (72 h)): 271 µM
IC50 ([7]; Batch 3, read-out: IC50 on the growth of Hep2 cells (72 h)): > 1000 µM
IC50 ([7]; average, read-out: IC50 on the growth of Hep2 cells (72 h)): 952 µM
inhibitory effect on the 7 human tumor cell lines in vitro [8]: no apparent inhibitory effect
